# Reference: patent US12139492B2 (Endotarget Inc., priority 2021, dated 2024)
# pIC50: −log10 of the molar value. Like-named read-outs stand apart in the source and are kept apart here.
# What was measured:
# BTK = BTK (Homo sapiens, UniProt Q06187); test: Degradation of BTK protein in Namalwa cells (Western blot; DC50, Dmax); conditions: for DC50: cell line not given
# JeKo-1 cells = test: Antiproliferative effect, MTS cell viability assay, JeKo-1 cells; format: cell-based; conditions: Homo sapiens; JeKo-1 mantle cell lymphoma cells; read-out: IC50 (anti-proliferation) JeKO-1 cells
# Outline: (§1)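 Mino and JeKo-1 mantle B-cell lymphoma lines were exposed to compound at 0, 0.001, 0.01, 0.1, 1 and 10 μM for 72 h. Viability was read by MTS reduction to formazan, measured as absorbance at 490 nm.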
# Mino cells = test: Antiproliferative effect, MTS cell viability assay, Mino cells; format: cell-based; conditions: Homo sapiens, MINO, Mino mantle cell lymphoma cells; read-out: IC50 (anti-proliferation) Mino cells
# Outline: as §1
# [1] = read-out: DC50 (BTK degradation), concentration giving 50% reduction of BTK expression level
# [2] = read-out: Dmax (BTK degradation)
# Sequence of BTK (Q06187 whole entry): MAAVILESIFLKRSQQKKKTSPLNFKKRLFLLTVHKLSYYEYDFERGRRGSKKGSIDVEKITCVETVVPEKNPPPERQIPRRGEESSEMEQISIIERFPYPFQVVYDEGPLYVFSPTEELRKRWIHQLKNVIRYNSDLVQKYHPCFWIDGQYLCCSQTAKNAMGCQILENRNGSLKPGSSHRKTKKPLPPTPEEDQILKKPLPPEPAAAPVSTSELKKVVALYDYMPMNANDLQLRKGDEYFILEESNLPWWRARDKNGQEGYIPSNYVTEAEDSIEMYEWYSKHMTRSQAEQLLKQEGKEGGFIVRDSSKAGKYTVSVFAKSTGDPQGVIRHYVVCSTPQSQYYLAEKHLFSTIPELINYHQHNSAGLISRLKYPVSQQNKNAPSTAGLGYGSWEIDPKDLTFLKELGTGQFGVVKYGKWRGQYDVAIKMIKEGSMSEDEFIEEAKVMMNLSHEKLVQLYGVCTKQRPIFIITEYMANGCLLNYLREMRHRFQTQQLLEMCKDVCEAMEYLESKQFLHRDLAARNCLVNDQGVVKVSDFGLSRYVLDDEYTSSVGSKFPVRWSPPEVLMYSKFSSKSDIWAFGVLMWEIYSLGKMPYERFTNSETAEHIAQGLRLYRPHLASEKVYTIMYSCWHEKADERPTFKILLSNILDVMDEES
DC50 (BTK; [1]) [µM],Dmax (BTK; [2]) [%],Dmax (BTK) [%],DC50 (BTK; BTK degradation) [µM],"degradation of BTK protein (BTK; Namalwa B lymphocyte cells, various concentrations, 24 hours, Western blot)",Structure (SMILES),pIC50 (JeKo-1 cells),pIC50 (Mino cells)
< 0.01,> 90,,,,"Nc1ncnc2c1c(-c1ccc(Oc3ccccc3)cc1)nn2[C@@H]1CCCN(C(=O)N2CC(N3CCN(c4ccc5c(c4)C(=O)N([C@H]4CCC(=O)NC4=O)C5=O)CC3)C2)C1 [Compound 489, 5-(4-(1-((R)-3-(4-amino-3-(4-phenoxyphenyl)-1H-pyrazolo[3,4-d]pyrimidin-1-yl)piperidine-1-carbonyl)azetidin-3-yl)piperazin-1-yl)-2-((S)-2,6-dioxopiperidin-3-yl)isoindoline-1,3-dione]",> 6.00,> 6.00
,,> 75,0.01 to 0.05,,"Nc1ncnc2c1c(-c1ccc(Oc3ccccc3)cc1)nn2C1CCN(C2CCN(CCN3CCN(c4ccc5c(c4)C(=O)N(C4CCC(=O)NC4=O)C5=O)CC3)CC2)CC1 (centres unmarked) [Compound 217, 5-(4-(2-(4-(4-amino-3-(4-phenoxyphenyl)-1H-pyrazolo[3,4-d]pyrimidin-1-yl)-[1,4′-bipiperidin]-1′-yl)ethyl)piperazin-1-yl)-2-(2,6-dioxopiperidin-3-yl)isoindoline-1,3-dione]",> 6.00,5.00 to 6.00
,,> 90,0.01 to 0.05,,"NC(=O)c1c(-c2ccc(Oc3ccccc3)cc2)nn2c1NCCC2C1CCN(CC2CCN(C(=O)N3CCC(C4CCN(c5ccc6c(c5)C(=O)N(C5CCC(=O)NC5=O)C6=O)CC4)CC3)CC2)CC1 (centres unmarked) [Compound 365, 7-(1-((1-(1′-(2-(2,6-dioxopiperidin-3-yl)-1,3-dioxoisoindolin-5-yl)-[4,4′-bipiperidine]-1-carbonyl)piperidin-4-yl)methyl)piperidin-4-yl)-2-(4-phenoxyphenyl)-4,5,6,7-tetrahydropyrazolo[1,5-a]pyrimidine-3-carboxamide]",> 6.00,> 6.00
,,> 75,0.01 to 0.05,,"Nc1ncnc2c1c(-c1ccc(Oc3ccccc3)cc1)nn2C1CCN(CC2CCN(CCCN3CCC(c4ccc5c(c4)C(=O)N(C4CCC(=O)NC4=O)C5=O)CC3)CC2)CC1 (centres unmarked) [Compound 209, 5-(1-(3-(4-((4-(4-amino-3-(4-phenoxyphenyl)-1H-pyrazolo[3,4-d]pyrimidin-1-yl)piperidin-1-yl)methyl)piperidin-1-yl)propyl)piperidin-4-yl)-2-(2,6-dioxopiperidin-3-yl)isoindoline-1,3-dione]",< 5.00,< 5.00
,,> 75,0.01 to 0.05,,"NC(=O)c1c(-c2ccc(Oc3ccccc3)cc2)nn2c1NCC[C@H]2C1CCN(C(=O)N2CCN(CCC3CCN(c4ccc5c(c4)C(=O)N(C4CCC(=O)NC4=O)C5=O)CC3)CC2)CC1 (stereo partly drawn) [Compound 299, (7S)-7-(1-(4-(2-(1-(2-(2,6-dioxopiperidin-3-yl)-1,3-dioxoisoindolin-5-yl)piperidin-4-yl)ethyl)piperazine-1-carbonyl)piperidin-4-yl)-2-(4-phenoxyphenyl)-4,5,6,7-tetrahydropyrazolo[1,5-a]pyrimidine-3-carboxamide]",5.00 to 6.00,5.00 to 6.00
< 0.01,> 90,,,,"Nc1ncnc2c1c(-c1ccc(Oc3ccccc3)cc1)nn2C1CCN(CCCN2CCC(CN3CCN(c4ccc(N5CCC(=O)NC5=O)cc4)CC3)CC2)CC1 [Compound 556, 1-(4-(4-((1-(3-(4-(4-amino-3-(4-phenoxyphenyl)-1H-pyrazolo[3,4-d]pyrimidin-1-yl)piperidin-1-yl)propyl)piperidin-4-yl)methyl)piperazin-1-yl)phenyl)dihydropyrimidine-2,4(1H,3H)-dione]",> 6.00,> 6.00
,,> 90,0.01 to 0.05,,"Nc1ncnc2c1c(-c1ccc(Oc3ccccc3)cc1)nn2C1CCN(CC2CCN(CCCC3CCN(c4ccc5c(c4)CN(C4CCC(=O)NC4=O)C5=O)CC3)CC2)CC1 (centres unmarked) [Compound 212, 3-(5-(4-(3-(4-((4-(4-amino-3-(4-phenoxyphenyl)-1H-pyrazolo[3,4-d]pyrimidin-1-yl)piperidin-1-yl)methyl)piperidin-1-yl)propyl)piperidin-1-yl)-1-oxoisoindolin-2-yl)piperidine-2,6-dione]",< 5.00,5.00 to 6.00
> 0.05,> 50,,,,"NC(=O)c1c(-c2ccc(Oc3ccccc3)cc2)nn2c1NCC[C@H]2C1CCN(CC2CCN(C(=O)N3CCN(Cc4ccc5c(c4)C(=O)N(C4CCC(=O)NC4=O)C5=O)CC3)CC2)CC1 (stereo partly drawn) [Compound 399, (7S)-7-(1-((1-(4-((2-(2,6-dioxopiperidin-3-yl)-1,3-dioxoisoindolin-5-yl)methyl)piperazine-1-carbonyl)piperidin-4-yl)methyl)piperidin-4-yl)-2-(4-phenoxyphenyl)-4,5,6,7-tetrahydropyrazolo[1,5-a]pyrimidine-3-carboxamide]",< 5.00,5.00 to 6.00
< 0.01,> 90,,,,"Nc1ncnc2c1c(-c1ccc(Oc3ccccc3)cc1)nn2C1CCN(C2CCN(CCN3CCN(c4ccc(NC5CCC(=O)NC5=O)cc4)CC3)CC2)CC1 (centres unmarked) [Compound 581, 3-((4-(4-(2-(4-(4-amino-3-(4-phenoxyphenyl)-1H-pyrazolo[3,4-d]pyrimidin-1-yl)-[1,4′-bipiperidin]-1′-yl)ethyl)piperazin-1-yl)phenyl)amino)piperidine-2,6-dione]",> 6.00,> 6.00
0.01 to 0.05,> 90,,,,"Nc1ncnc2c1c(-c1ccc(Oc3ccccc3)cc1)nn2C1CCN(C[C@H]2CCN(CC3CCN(c4ccc5c(c4)CN(C4CCC(=O)NC4=O)C5=O)CC3)C2)CC1 (stereo partly drawn) [Compound 446a, 3-(5-(4-(((R)-3-((4-(4-amino-3-(4-phenoxyphenyl)-1H-pyrazolo[3,4-d]pyrimidin-1-yl)piperidin-1-yl)methyl)pyrrolidin-1-yl)methyl)piperidin-1-yl)-1-oxoisoindolin-2-yl)piperidine-2,6-dione]",5.00 to 6.00,5.00 to 6.00
0.01 to 0.05,> 90,,,dose-dependent degradation,"Nc1ncnc2c1c(-c1ccc(Oc3ccccc3)cc1)nn2C1CCN(CC2CCN(CC3CCN(c4ccc5c(c4)C(=O)N(C4CCC(=O)NC4=O)C5=O)CC3)C2)CC1 (centres unmarked) [Compound 445, 5-(4-((3-((4-(4-amino-3-(4-phenoxyphenyl)-1H-pyrazolo(3,4-d)pyrimidin-1-yl)piperidin-1-yl)methyl)pyrrolidin-1-yl)methyl)piperidin-1-yl)-2-(2,6-dioxopiperidin-3-yl)isoindoline-1,3-dione]",5.00 to 6.00,5.00 to 6.00
,,> 75,0.01 to 0.05,,"NC(=O)c1c(-c2ccc(Oc3ccccc3)cc2)nn2c1NCCC2C1CCN(CC2CCN(C(=O)N3CCC(CN4CCC(c5ccc6c(c5)CN(C5CCC(=O)NC5=O)C6=O)CC4)CC3)CC2)CC1 (centres unmarked) [Compound 376, 7-(1-((1-(4-((4-(2-(2,6-dioxopiperidin-3-yl)-1-oxoisoindolin-5-yl)piperidin-1-yl)methyl)piperidine-1-carbonyl)piperidin-4-yl)methyl)piperidin-4-yl)-2-(4-phenoxyphenyl)-4,5,6,7-tetrahydropyrazolo[1,5-a]pyrimidine-3-carboxamide]",5.00 to 6.00,5.00 to 6.00
,,> 75,0.01 to 0.05,,"Nc1ncnc2c1c(-c1ccc(Oc3ccccc3)cc1)nn2C1CCN(C2CCN(C(=O)N3CCN(CCCN4CCN(c5ccc6c(c5)CN(C5CCC(=O)NC5=O)C6=O)CC4)CC3)CC2)CC1 (centres unmarked) [Compound 258, 3-(5-(4-(3-(4-(4-(4-amino-3-(4-phenoxyphenyl)-1H-pyrazolo[3,4-d]pyrimidin-1-yl)-[1,4′-bipiperidine]-1′-carbonyl)piperazin-1-yl)propyl)piperazin-1-yl)-1-oxoisoindolin-2-yl)piperidine-2,6-dione]",< 5.00,5.00 to 6.00
,,> 75,0.01 to 0.05,,"Nc1ncnc2c1c(-c1ccc(Oc3ccccc3)cc1)nn2C1CCN(C2CCN(C(=O)N3CCN(C4CCN(c5ccc6c(c5)CN(C5CCC(=O)NC5=O)C6=O)CC4)CC3)CC2)CC1 (centres unmarked) [Compound 234, 3-(5-(4-(4-(4-(4-amino-3-(4-phenoxyphenyl)-1H-pyrazolo[3,4-d]pyrimidin-1-yl)-[1,4′-bipiperidine]-1′-carbonyl)piperazin-1-yl)piperidin-1-yl)-1-oxoisoindolin-2-yl)piperidine-2,6-dione]",5.00 to 6.00,5.00 to 6.00
,,> 50,> 0.05,,"NC(=O)c1c(-c2ccc(Oc3ccccc3)cc2)nn2c1NCCC2C1CCN(C2CCN(C(=O)N3CCN(c4ccc5c(c4)C(=O)N(C4CCC(=O)NC4=O)C5=O)CC3)CC2)CC1 (centres unmarked) [Compound 337, 7-(1′-(4-(2-(2,6-dioxopiperidin-3-yl)-1,3-dioxoisoindolin-5-yl)piperazine-1-carbonyl)-[1,4′-bipiperidin]-4-yl)-2-(4-phenoxyphenyl)-4,5,6,7-tetrahydropyrazolo[1,5-a]pyrimidine-3-carboxamide]",5.00 to 6.00,< 5.00
> 0.05,> 50,,,,"Nc1ncnc2c1c(-c1ccc(Oc3ccccc3)cc1)nn2C1CCN(C2CCN(CCCC#Cc3ccc(N4CCC(=O)NC4=O)cc3)CC2)CC1 [Compound 534, 1-(4-(5-(4-(4-amino-3-(4-phenoxyphenyl)-1H-pyrazolo[3,4-d]pyrimidin-1-yl)-[1,4′-bipiperidin]-1′-yl)pent-1-yn-1-yl)phenyl)dihydropyrimidine-2,4(1H,3H)-dione]",< 5.00,< 5.00
